Source: patent US20240317735A1, “HYDROISOQUINOLINE OR HYDRONAPHTHYRIDINE COMPOUNDS FOR THE TREATMENT OF AUTOIMMUNE DISEASE” (Hoffmann-La Roche Inc., priority 2020, published 2024)
pIC50: −log10 of the molar value.

These molecules were tested against T1, TLR9 (Homo sapiens, UniProt Q9NR96) (assay: Human PBMC cell-based assay (CpG ODN 2216 stimulation)). Settings: CpG ODN 2216 at 1 μM, overnight, read-out: hPBMC/TLR9 IC50.
T1 sequence (Q9NR96 26-1032): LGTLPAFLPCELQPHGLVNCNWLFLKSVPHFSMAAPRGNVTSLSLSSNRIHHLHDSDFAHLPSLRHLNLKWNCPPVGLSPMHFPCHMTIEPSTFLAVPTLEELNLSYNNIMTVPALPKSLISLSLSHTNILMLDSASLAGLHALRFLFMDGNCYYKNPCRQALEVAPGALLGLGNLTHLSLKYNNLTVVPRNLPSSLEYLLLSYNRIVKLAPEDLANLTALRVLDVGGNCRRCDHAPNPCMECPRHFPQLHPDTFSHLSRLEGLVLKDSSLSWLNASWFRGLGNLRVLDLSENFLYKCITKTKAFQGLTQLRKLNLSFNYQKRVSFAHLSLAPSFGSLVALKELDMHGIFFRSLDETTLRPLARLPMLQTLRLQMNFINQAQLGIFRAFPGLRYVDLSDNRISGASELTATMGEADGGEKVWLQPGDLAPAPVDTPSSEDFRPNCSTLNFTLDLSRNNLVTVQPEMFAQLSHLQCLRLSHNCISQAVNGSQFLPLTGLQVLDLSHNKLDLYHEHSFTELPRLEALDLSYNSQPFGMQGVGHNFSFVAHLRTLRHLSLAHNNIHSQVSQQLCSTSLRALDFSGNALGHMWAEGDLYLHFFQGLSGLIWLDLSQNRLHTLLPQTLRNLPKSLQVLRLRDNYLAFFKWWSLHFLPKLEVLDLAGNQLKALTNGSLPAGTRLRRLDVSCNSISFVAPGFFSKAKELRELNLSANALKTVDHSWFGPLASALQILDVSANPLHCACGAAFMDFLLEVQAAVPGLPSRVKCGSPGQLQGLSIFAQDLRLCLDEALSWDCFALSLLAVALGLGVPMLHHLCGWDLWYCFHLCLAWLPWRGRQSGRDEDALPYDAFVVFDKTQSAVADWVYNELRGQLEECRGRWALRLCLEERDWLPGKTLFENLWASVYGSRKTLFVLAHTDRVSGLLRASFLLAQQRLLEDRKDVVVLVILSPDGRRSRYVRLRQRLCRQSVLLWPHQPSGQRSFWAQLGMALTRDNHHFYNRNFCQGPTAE
Parameters: These cells express TLR7, TLR8, or TLR9, and therefore are natural responders to respective ligand stimulation; endogenous in cells; host or cells: human PBMC from healthy donor whole blood
Text: Unlike the HEK reporter cell lines, human peripheral blood mononuclear cell (PBMC) represents primary human immune cells in blood mainly consisting of lymphocytes, monocytes, and dendritic cells. These cells express TLR7, TLR8, or TLR9, and therefore are natural responders to respective ligand stimulation. Upon activation of these TLRs, PBMCs secrete similar cytokines and chemokines in vitro and in vivo, and therefore the in vitro potency of a TLR7/8/9 antagonist in human PBMC is readily translatable to its pharmacodynamics response in vivo.
Human peripheral blood mononuclear cells (PBMC) were isolated from freshly-drawn lithium-heparinized (Lithium Heparin Plus blood Collection tube, BD Vacutainer®) healthy donor whole blood by density gradient (Ficoll-Paque™ PLUS, GE Healthcare life Sciences). Briefly, 50 mL of blood was diluted with 25 mL PBS (without Ca^2+, Mg^2+) in a 50 mL conical tube with porous barrier (Leucosep tube, Greiner bio-one), where 15.5 mL Ficoll-Paque was under laid after spinning. Tubes were centrifuged for 20 minutes at 800×g (1946 rpm) with the brake in the off position, and PBMC were collected from the buffy coat. Cells were then washed twice in PBS, and red blood cells were lysed by suspension in 2 mL (Red Blood Cell Lysis Buffer, Alfa Aesar) for 5-10 minutes at room temperature. After a final wash in PBS, PBMC were resuspended at a final concentration of 2×10^6 cells/mL in RPMI-1640 media with GlutaMAX™ (Gibco) supplemented with 10% Fetal Bovine Serum (Sigma) and plated at 150 μL/well (3×10^5 cells/well) in tissue culture treated round bottom 96-well plates (Corning Incorporated). Antagonist compounds (compounds of this invention) solubilized and serial diluted in 100% DMSO were added in duplicate to cells to yield a final concentration of 1% DMSO (v/v). PBMC were incubated with antagonist compounds for 30 minutes at 37° C., 5% CO2 before adding various TLR agonist reagents in 48 μL complete media per well as follows (final concentrations indicated): CpG ODN 2216 (InvivoGen) at 1 μM for TLR9, ORN 06/LyoVec (InvivoGen) at […] for TLR8 and R848 (InvivoGen) at 1p g/mL for TLR7 and TLR8. PBMC were incubated overnight at 37° C. with 5% CO2. Cell culture supernatants were collected, and levels of various human cytokines were assessed by Luminex assay (ProcartaPlex™ Multiplex Immunoassay, Invitrogen) or ELISA procedure according to the manufacturer's recommended protocol (eBioscience, ThermoFisher Scientific). Viability of the cells was also checked with Cell Viability Assay (CellTiter Glo®Luminescent Cell Viability Assay, Promega).

Structure (SMILES)	pIC50
C[C@H]1CN(c2ccnc3c2cnn3C)Cc2ccc(N3CCNCC3)cc21 [Example 1, (4R)-4-methyl-2-(1-methylpyrazolo[3,4-b]pyridin-4-yl)-6-piperazin-1-yl-3,4-dihydro-1H-isoquinoline]	6.40
Cn1ncc2c(N3CCc4cc(N5CCNCC5)ccc4C3)ccnc21 [Example 3, 2-(1-methylpyrazolo[3,4-b]pyridin-4-yl)-6-piperazin-1-yl-3,4-dihydro-1H-isoquinoline]	6.36
CC1CN(c2ccnc3c2cnn3C)Cc2ccc(N3CCC4(CCNCC4)CC3)cc21 (stereo not drawn) [Example 4, 3-[4-methyl-2-(1-methylpyrazolo[3,4-b]pyridin-4-yl)-3,4-dihydro-1H-isoquinolin-6-yl]-3,9-diazaspiro[5.5]undecane]	6.58
Cc1cc(N2Cc3ccc(N4CCC5(CCNCC5)CC4)cc3C(C)C2)c2cnn(C)c2n1 (stereo not drawn) [Example 5, 3-[2-(1,6-dimethylpyrazolo[3,4-b]pyridin-4-yl)-4-methyl-3,4-dihydro-1H-isoquinolin-6-yl]-3,9-diazaspiro[5.5]undecane]	6.81
C[C@H]1CN(c2ccnc3c2cnn3C)Cc2ccc(N3CCN(c4cc5c(cn4)CCNC5)CC3)cc21 [Example 9, 7-[4-[(4R)-4-methyl-2-(1-methylpyrazolo[3,4-b]pyridin-4-yl)-3,4-dihydro-1H-isoquinolin-6-yl]piperazin-1-yl]-1,2,3,4-tetrahydro-2,6-naphthyridine]	6.49
C[C@H]1CN(c2ccnc3c2cnn3C)Cc2ccc(OC[C@H]3CNCCN3)cc21 [Example 18, (4R)-4-methyl-2-(1-methylpyrazolo[3,4-b]pyridin-4-yl)-6-[[(2R)-piperazin-2-yl]methoxy]-3,4-dihydro-1H-isoquinoline]	6.44
C[C@H]1CN(c2ccnc3c2cnn3C)Cc2ccc(OC[C@@H]3CNCCN3)cc21 [Example 19, (4R)-4-methyl-2-(1-methylpyrazolo[3,4-b]pyridin-4-yl)-6-[[(2S)-piperazin-2-yl]methoxy]-3,4-dihydro-1H-isoquinoline]	6.40
CO[C@@H]1CN(c2ccc3c(c2)[C@@H](C)CN(c2cc(C)nc4c2cnn4C)C3)C[C@H]1N [Example 23, (3R,4R)-4-methoxy-1-[(4R)-2-(1,6-dimethylpyrazolo[3,4-b]pyridin-4-yl)-4-methyl-3,4-dihydro-1H-isoquinolin-6-yl]pyrrolidin-3-amine]	6.62
C[C@H]1CN(c2ccnc3c2cnn3C)Cc2ccc(N3CCC(N4CC(N)C4)CC3)cc21 [Example 28, 1-[1-[(4R)-4-methyl-2-(1-methylpyrazolo[3,4-b]pyridin-4-yl)-3,4-dihydro-1H-isoquinolin-6-yl]-4-piperidyl]azetidin-3-amine]	6.57
Cc1cc(N2Cc3ccc(OC[C@@H]4CNCCN4)cc3[C@@H](C)C2)c2cnn(C)c2n1 [Example 31, (4R)-2-(1,6-dimethylpyrazolo[3,4-b]pyridin-4-yl)-4-methyl-6-[[(2S)-piperazin-2-yl]methoxy]-3,4-dihydro-1H-isoquinoline]	6.67
C[C@H]1CN(c2ccnc3c2cnn3C)Cc2ccc(OC3CN(C4CCNCC4)C3)cc21 [Example 41, (4R)-4-methyl-2-(1-methylpyrazolo[3,4-b]pyridin-4-yl)-6-[1-(4-piperidyl)azetidin-3-yl]oxy-3,4-dihydro-1H-isoquinoline]	6.54
Cc1cc(N2Cc3ccc(N4C[C@@H](N)[C@H](O)C4)cc3[C@@H](C)C2)c2cnn(C)c2n1 [Example 47, trans-4-amino-1-[(4R)-2-(1,6-dimethylpyrazolo[3,4-b]pyridin-4-yl)-4-methyl-3,4-dihydro-1H-isoquinolin-6-yl]pyrrolidin-3-ol]	6.54
C[C@H]1CN(c2ccnc3c2cnn3C)Cc2ccc(N3CCN[C@@H](CO)C3)cc21 [Example 50, [(2R)-4-[(4R)-4-methyl-2-(1-methylpyrazolo[3,4-b]pyridin-4-yl)-3,4-dihydro-1H-isoquinolin-6-yl]piperazin-2-yl]methanol]	6.32
Cc1cc(N2Cc3ccc(N4CCC(N)CC4)nc3[C@@H](C)C2)c2cnn(C)c2n1 [Example 58, 1-[(8S)-6-(1,6-dimethylpyrazolo[3,4-b]pyridin-4-yl)-8-methyl-7,8-dihydro-5H-1,6-naphthyridin-2-yl]piperidin-4-amine]	6.56
CO[C@@H]1CN(c2ccc3c(n2)[C@@H](C)CN(c2cc(C)nc4c2cnn4C)C3)C[C@H]1N [Example 63, (3R,4R)-4-methoxy-1-[(8S)-6-(1,6-dimethylpyrazolo[3,4-b]pyridin-4-yl)-8-methyl-7,8-dihydro-5H-1,6-naphthyridin-2-yl]pyrrolidin-3-amine]	6.37
CO[C@H]1CN(c2ccc3c(n2)[C@@H](C)CN(c2cc(C)nc4c2cnn4C)C3)CC[C@@H]1N [Example 65, (3S,4S)-3-methoxy-1-[(8S)-6-(1,6-dimethylpyrazolo[3,4-b]pyridin-4-yl)-8-methyl-7,8-dihydro-5H-1,6-naphthyridin-2-yl]piperidin-4-amine]	6.43
CO[C@H]1CN(c2cc3c(cn2)CN(c2cc(C)nc4c2cnn4C)C[C@@H]3C)CC[C@@H]1N [Example 73, (3S,4S)-3-methoxy-1-[(5R)-7-(1,6-dimethylpyrazolo[3,4-b]pyridin-4-yl)-5-methyl-6,8-dihydro-5H-2,7-naphthyridin-3-yl]piperidin-4-amine]	6.47
Cc1cc(N2Cc3cnc(N4CCNCC4)cc3[C@@H](C)C2)c2cnn(C)c2n1 [Example 74, (4R)-2-(1,6-dimethylpyrazolo[3,4-b]pyridin-4-yl)-4-methyl-6-piperazin-1-yl-3,4-dihydro-1H-2,7-naphthyridine]	6.60
